# Test results: publication PMC7407672 (Cells, 2020)
# Columns and labels:
# [1] = test system: LS174T-hPXR cells; assay: LS174T-hPXR proliferation assay (P-screen) after SPA70 pretreatment; format: cell-based, human; conditions: pretreated with SPA70 100 nM; 7 days; read-out: potency (EC50) on proliferation
# Protocol: We developed a new proliferation test that we called the P-screen to measure the effects of compounds with PXR activity on the growth of LS174T-hPXR cells. This test uses the same principle as that for E-screen that was used for measuring the effects of estrogens on the proliferation of MCF-7 breast cancer cells. […] The medium was then removed, and cells were treated with increasing concentrations of the different compounds for 7 days. Medium was removed, and 0.1 mL of MTT solution (0.5 mg/mL) was added to each well. The MTT-containing medium was removed 4 h after incubation, and DMSO was added to each well. After shaking, the plates were read in absorbance at 540 nm. Results were expressed as percentage of proliferation with respect to the hormone-free control (100%). Data were obtained by dose–response curves plotted as percentage of proliferation as a function of concentrations.
# [2] = test system: hPXR target genes (CYP3A4, ABCG2, FGF19) in LS174T-hPXR cells; assay: RT-qPCR of hPXR target genes in LS174T-hPXR cells; format: cell-based, human
# Protocol: (§1) Total RNA was isolated and purified using “Zymo Research—Quick RNA mini prep” kit for LS174T-hPXR cells and using Trizol reagent (Thermo Fisher Scientific, Illkirch-Graffenstaden, France) for primary human hepatocytes and HepaRG according to the manufacturer’s protocol. The concentration and the purity of isolated RNA were measured using a spectrophotometer NanoVue (GE health care life sciences, Velizy-Villacoublay, France). Reverse transcription was performed with the qScript cDNA SuperMix (VWR, Fontenay-sous-Bois, France) for LS174-hPXR and HepaRG cells and using a random hexaprimer and the MMLV Reverse Transcriptase Kit (Life Technologies) for primary human hepatocytes. Quantitative polymerase chain reactions were performed using SYBR green (Qiagen, Les Ulis, France) and specific primers (Supplementary Table S2) with the LightCycler®-480 real-time PCR system (Roche Diagnostics, Meylan, France). The relative amount of RNA was calculated with the 2^ΔΔCT method, and gene expression was normalized using GAPDH or RPLP0. In Figure 5AB, the level of expression was compared with the mean level of the corresponding gene expression in DMSO-treated cells and expressed as n-fold ratio.
# [3] = test system: CYP3A4 and CYP2B6 genes in primary human hepatocytes; assay: RT-qPCR of hPXR target genes in primary human hepatocytes; format: cell-based; conditions: three donors, 48 h
# From the text: Liver samples were obtained from the Biologic Resource Center of Montpellier University Hospital (CRB-CHUM; http://www.chumontpellier.fr; Biobank ID: BB-0033-00031), and this study benefitted from the expertise of Dr. Benjamin Rivière (hepatogastroenterology sample collection) and Dr. Edouard Tuaillon (CRB-CHUM manager). Samples were obtained from livers of adult patients who underwent liver resections for medical reasons unrelated to our research program, or from anonymous donors when the liver was considered unsuitable for organ transplantation. The use of human specimens for scientific purposes was approved by the French National Ethics Committee. Written or oral informed consent was obtained from each patient or family prior to surgery. The clinical characteristics of the liver donors are presented in Supplementary Table S2. Hepatocytes were isolated by using a two-step perfusion protocol and cultured as described previously.
# as §1
smiles,measurement,setting,value
CCOP(=O)(OCC)C(=Cc1cc(C(C)(C)C)c(O)c(C(C)(C)C)c1)P(=O)(OCC)OCC [SR12813],EC50,[1],38 nM
same,ABCG2 expression increase,[2]; 24 h,12 fold
same,CYP3A4 expression increase,[2]; 24 h,190 fold
same,concentration of maximal induction of CYP3A4 expression,[2]; 24 h,1000 nM
same,FGF19 expression induction,[2]; highest concentration used (3 µM),4 fold
same,induction of CYP2B6 gene expression,[3],significantly induce
same,induction of CYP3A4 gene expression,[3],significantly induce
